Measured values from patent publication US20060240014A1, “Methods and compounds for the treatment of vascular stenosis” (Beth Israel Deaconess Medical Center, priority 2003, published 2006).
Counter-ions that a name gives are not always drawn.

Test system: human aortic vascular smooth muscle cells (HASOM cells)
Assay: hPDGF-BB induced migration of human aortic vascular smooth muscle cells (Boyden chamber)
Format: cell-based
Conditions: 20 ng/ml hPDGF-BB, 48 hours drug pre-incubation, 12 hours migration, dose dependent (FIG. 1)
Experimental: Drug concentrations for G are in ng/mL and for R are in pg/mL. The first lane has no PDGF added and the first two lanes have no drug compounds added. The results are expressed as means±S.E.M. of triplicate readings.
In vitro studies were performed to examine the dose response of Gleevec and rapamycin on human aortic vascular smooth muscle cells (HASOM cells). Cell migration was measured using a 24-well Boyden-chamber (Corning Costar Corp, Cambridge, Mass.). […] These membranes were coated with 0.1% gelatin for eight hours, then aspirated and allowed to dry for two hours. The cells were allowed to grow to 70% confluence and then treated with media containing 1% fetal calf serum and drug compounds (Gleevec alone, rapamycin alone and Gleevec and rapamycin together at the concentrations indicated in FIG. 1) for 48 hours prior to the migration assay. […] The cells were harvested in 0.05% trypsin, resuspended in M-199 media, and seeded on the coated membrane at a concentration of 4000 cells per well with Gleevec and/or rapamycin. The M-199 media containing 0.5% BSA and 20 ng/ml human PDGF-B (hPDGF-BB) was placed in the bottom Boyden chamber. Cells were incubated in 5% CO2 at 37° C. for 12 hours and the cells lying on the upper surface of the membrane were scraped. […] Cell migration was quantified by counting the cells in five random high-power fields on the lower surface of the membrane. […]

Structure (SMILES): Cc1ccc(NC(=O)c2ccc(CN3CCN(C)CC3)cc2)cc1Nc1nccc(-c2cccnc2)n1 [Gleevec, imatinib mesylate]
- inhibition of PDGF induced migration of HASOM cells: potently inhibited
